In one assay the target is N-domain (ACE). The following applies: read-out: Ki, N-domain, ref [20],[21]; cited from earlier work.
In a further assay the test system is C-domain of ACE. The following applies: ref [20],[21], cited from earlier work.
In a further assay the test system is Truncated C-domain ACE. Briefly: fluorimetric ACE activity assay, truncated C-domain. It counts as biochemical. The following applies: at micromolar concentrations under identical assay conditions.

Consider one substance from publication PMC9535653 (ACS Omega, 2022).

Sequence of Truncated C-domain ACE (P12821 643-1222 limits assumed): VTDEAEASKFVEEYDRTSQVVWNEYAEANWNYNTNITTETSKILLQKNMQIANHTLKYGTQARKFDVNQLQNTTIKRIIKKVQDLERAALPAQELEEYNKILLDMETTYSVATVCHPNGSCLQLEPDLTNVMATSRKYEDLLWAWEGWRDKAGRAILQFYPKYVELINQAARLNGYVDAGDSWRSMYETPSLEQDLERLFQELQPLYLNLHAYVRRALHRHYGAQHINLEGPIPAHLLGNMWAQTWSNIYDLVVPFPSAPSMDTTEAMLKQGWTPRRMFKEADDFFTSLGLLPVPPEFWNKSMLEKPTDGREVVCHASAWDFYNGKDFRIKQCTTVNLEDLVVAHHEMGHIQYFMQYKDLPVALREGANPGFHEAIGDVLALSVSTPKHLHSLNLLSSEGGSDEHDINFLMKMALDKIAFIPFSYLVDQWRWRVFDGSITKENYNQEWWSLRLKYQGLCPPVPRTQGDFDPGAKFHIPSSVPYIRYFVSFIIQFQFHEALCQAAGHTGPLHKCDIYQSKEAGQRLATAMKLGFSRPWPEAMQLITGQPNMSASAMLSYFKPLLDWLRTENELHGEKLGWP

A word on the Ki: it is the equilibrium dissociation constant of an inhibitor or competing ligand from its target. With “(2-(((R)-1-(((Benzyloxy)carbonyl)amino)-2-phenylethyl)(hydroxy)phosphoryl)cyclopentane-1-carbonyl)-L-tryptophan [RXPA380]”, the Ki on N-domain (ACE) was 10 µM; at C-domain of ACE (read-out: Ki, C-domain, ACE C-domain) it was 0.003 µM. Further, the “potency and selectivity for C-domain of ACE (in words)” value with C-domain of ACE (C-domain versus N-domain) was “the most potent and selective C domain of ACE”. For the same substance, in the assay with Truncated C-domain ACE, the “Inhibition of C-domain by parent (in words)” value is given as “completely inhibits the C-domain at micromolar concentrations”.
